Read-outs that look alike come from different tables or passages of the source.
What was measured:
[1] = Pharmacokinetic (PK) studies, in vivo monkey oral PK; parameters: species or system Cynomolgus monkeys; conditions: Cynomolgus monkey; for Tmax / AUC(0-t) / Cmax / bioavailability: plasma; for AUC(0-t): read-out: AUC0-24 (Arbitrary units); for Cmax: read-out: Cmax (Arbitrary unit); for bioavailability: read-out: F % (oral bioavailability)
Method: Pharmacokinetic (PK) Studies Test Articles:
Examples 60, 115, 117, and 119 were tested along with comparative examples CE-1 and CE-2.
Dose Formulation Preparation
Compounds CE-2, Example 60, Example 115, Example 117, and Example 119 were combined with a mixture of 10% NMP (v:v) and 90% PEG300 (v:v), and the mixture was stirred until a homogeneous solution was obtained.
Compound CE-1 was combined with a mixture of 15% 2-hydroxypropyl-β-cyclodextrin (w:v) and 85% Milli-Q water (v:v), and the mixture was stirred until a homogeneous solution was obtained.
Young adult non-naive Cynomolgus monkeys with weight about 2.5-5 kg (n=1-3/test article/route) were fasted overnight and then dosed with either CE-1, CE2, Example 60, Example 115, Example 117 or Example 119. Food was supplied approximately 4 hours post dose and animals were provided with free access to water all the time. Animals were restrained at designated time points for blood sampling. Approximately 500 μL of blood samples was taken via cephalic or saphenous vein into EDTA-K2 tubes. For oral administration (PO): blood samples were generally collected pre-dose, and at 15 min, 30 min, 1 hr., 2 hr., 4 hr., 8 hr., 12 hr., and 24 hr. time points after dosing. Blood was be maintained on wet ice, in chilled cryoracks, or at approximately 5° C. prior to centrifugation to obtain plasma. Centrifugation was conducted within 1 hour of collection. Plasma (approximately 200 μL) was placed into a micronic tubes containing 4 μL of formic acid (the final concentration of formic acid in plasma was approximately 2%) and samples were vortex mixed. Samples were maintained on dry ice prior to storage at approximately −70° C.
LC-MS/MS assays were utilized to quantify the concentration of the test articles in plasma as follows.
50 μL plasma sample was mixed with 350 μL of ACN combined with an internal standard. The mixture was then vortexed for about 1-5 min, and centrifuged at about 4,000-5,800 rpm for about […]. An aliquot of 1 μL supernatant was used for LC-MS/MS analysis.
MS conditions: A Sciex API 6500 equipped with electrospray ionization in the positive ion selected reaction monitoring mode was used for detection.
HPLC conditions • Mobile Phase A: H2O-0.11% Formic Acid • Mobile Phase B: ACN-0.1% Formic Acid
• Column: Phenomenex Kinetex XBCl8 (2.1×50 mm, 2.6 μm) with a flow rate of 1.20 mL/min • Column temperature: 60° C. • Retention time: approximately between 0.85 to 1.05 • min Pharmacokinetics (PK) Parameters
Pharmacokinetics parameters, including area under the curve (AUC0-24), maximum plasma concentration (Cmax), time to reach maximum plasma concentration (Tmax), oral bioavailability (F %), etc., were calculated using Dotmatics software in non-compartmental model.

[2] = molecular target: GLP-1R (Homo sapiens, UniProt P43220); assay: GLP-1R Activation - cAMP Assay; format: cell-based; conditions: cAMP increase in CHO cells stably expressing GLP-1R; each compound run on one of the two cAMP assays (Assay 1 or Assay 2, not specified)
GLP-1R, sequence (P43220 24-463): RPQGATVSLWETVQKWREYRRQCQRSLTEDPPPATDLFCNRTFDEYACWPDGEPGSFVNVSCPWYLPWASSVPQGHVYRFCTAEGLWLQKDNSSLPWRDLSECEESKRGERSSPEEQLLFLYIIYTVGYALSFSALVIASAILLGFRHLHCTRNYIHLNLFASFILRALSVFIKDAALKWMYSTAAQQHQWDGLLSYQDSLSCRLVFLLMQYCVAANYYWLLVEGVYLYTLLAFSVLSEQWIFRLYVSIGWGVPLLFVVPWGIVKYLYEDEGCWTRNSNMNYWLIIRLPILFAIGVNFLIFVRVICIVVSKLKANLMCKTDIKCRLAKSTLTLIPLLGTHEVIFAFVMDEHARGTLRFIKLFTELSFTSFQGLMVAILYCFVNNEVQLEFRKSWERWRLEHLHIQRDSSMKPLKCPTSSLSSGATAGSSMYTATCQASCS
How it was run: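 cAMP rise read by HTRF after 30 min agonist exposure (10-point titration, 37 °C) in HBSS/20 mM Hepes/0.1% BSA, following 1 h pre-incubation. Cells: stable GLP-1R CHO line, 1,000/well, seeded overnight. Sigmoidal fit of response vs log concentration gives EC50.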

| Compound | Tmax ([1]; single oral dose 2 mg/kg) | AUC(0-t) ([1]; single oral dose 2 mg/kg) | Cmax ([1]; single oral dose 2 mg/kg) | bioavailability ([1]; single oral dose 2 mg/kg) | EC50 [2] | also measured |
| --- | --- | --- | --- | --- | --- | --- |
| N#Cc1ccc(COc2cccc(C3CCN(Cc4nc5ccc(C(=O)O)cc5n4C[C@@H]4CCO4)CC3)n2)c(F)c1 [CE-1, (S)-2-((4-(6-((4-cyano-2-fluorobenzyl)oxy)pyridin-2-yl)piperidin-1-yl)methyl)-1-(oxetan-2-ylmethyl)-1H-benzo[d]imidazole-6-carboxylic acid, reference compound] |  |  |  |  |  | plasma concentrations ([1]; over a period of 12 h after a single oral dose of 1 mg/kg): < 10 nM; Tmax ([1]; single oral dose 1 mg/kg): 2.2 ± 1.8 h; AUC(0-t) ([1]; single oral dose 1 mg/kg): 0.0477 ± 0.0133 µM·h; Cmax ([1]; single oral dose 1 mg/kg): 4.5 ± 0.8 nM; plasma exposure after the 12 h period ([1]; single oral dose of 1 mg/kg, after 12 h): below the detection limit; bioavailability ([1]; single oral dose 1 mg/kg): 2.5% |
| N#Cc1ccc(COc2cccc(-c3cc(F)c(Cc4nc5ccc(C(=O)O)cc5n4C[C@@H]4CCO4)cc3F)n2)c(F)c1 [CE-2, (S)-2-(4-(6-((4-cyano-2-fluorobenzyl)oxy)pyridin-2-yl)-2,5-difluorobenzyl)-1-(oxetan-2-ylmethyl)-1H-benzo[d]imidazole-6-carboxylic acid, reference compound] | 4 ± 2 h | 2.81 ± 1.33 µM·h | 224 ± 130 nM | 27.4% |  | duration of exposure ([1]; single oral dose 2 mg/kg): sustained exposures over 24 h |
| CC1(C)COC[C@H]1n1c(Cc2cc(F)c(-c3cccc(OCc4ccc(C#N)cc4F)n3)cc2F)nc2ccc(C(=O)O)cc21 [Example 60] | 1.5 ± 0.9 h | 5.57 ± 2.19 µM·h | 385 ± 82 nM | 47.6 ± 12.3% | 0.04 nM |  |
| CC1(C)COC[C@H]1n1c(Cc2cc(F)c(-c3cccc(OCc4ccc(Cl)cc4F)n3)cc2F)nc2ccc(C(=O)O)cc21 [Example 115] | 2.7 ± 1.2 h | 17.9 ± 2.04 µM·h | 1540 ± 166 nM | 42 ± 16.5% | 0.122 nM |  |
| CC1(C)COC[C@H]1n1c(Cc2cc(F)c(-c3ccnc(OCc4ccc(Cl)cc4F)n3)cc2F)nc2c(F)cc(C(=O)O)cc21 [Example 117, (S)-2-(4-(2-((4-chloro-2-fluorobenzyl)oxy)pyrimidin-4-yl)-2,5-difluorobenzyl)-1-(4,4-dimethyltetrahydrofuran-3-yl)-4-fluoro-1H-benzo[d]imidazole-6-carboxylic Acid] | 4.7 ± 2.3 h | 12.8 ± 4.01 µM·h | 1600 ± 832 nM | 52.2 ± 16.3% | 0.044 nM |  |
| CC1(C)COC[C@H]1n1c(Cc2cc(F)c(-c3cccc(OCc4ccc(C#N)cc4)n3)cc2F)nc2ccc(C(=O)O)cc21 [Example 119, (S)-2-(4-(6-((4-cyanobenzyl)oxy)pyridin-2-yl)-2,5-difluorobenzyl)-1-(4,4-dimethyltetrahydrofuran-3-yl)-benzimidazole-6-carboxylic Acid] | 1.7 ± 0.6 h | 19.4 ± 3.31 µM·h | 1190 ± 137 nM | 47.6 ± 8.1% | 0.031 nM |  |
| CC(C)O[C@H]1COC[C@H]1n1c(Cc2cc(F)c(-c3cccc(OCc4ccc(Cl)cc4F)n3)cc2F)nc2ccc(C(=O)O)cc21 [Example 570, 2-(4-(6-((4-chloro-2-fluorobenzyl)oxy)pyridin-2-yl)-2,5-difluorobenzyl)-1-((3R,4R)-4-isopropoxytetrahydrofuran-3-yl)-1H-benzo[d]imidazole-6-carboxylic acid] |  |  |  |  | 0.955 nM |  |
| CCO[C@H]1COC[C@H]1n1c(Cc2cc(F)c(-c3cccc(OCc4ccc(Cl)cc4F)n3)cc2F)nc2ccc(C(=O)O)cc21 [Example 571, 2-(4-(6-((4-chloro-2-fluorobenzyl)oxy)pyridin-2-yl)-2,5-difluorobenzyl)-1-((3R,4R)-4-ethoxytetrahydrofuran-3-yl)-1H-benzo[d]imidazole-6-carboxylic acid] |  |  |  |  | 1.27 nM |  |
| CC1(C)COC[C@H]1n1c(Cc2c(F)cc(-c3ccnc(OCc4ccc(F)cc4)n3)c(F)c2F)nc2ccc(C(=O)O)cc21 [Example 574, (S)-1-(4,4-dimethyltetrahydrofuran-3-yl)-2-(2,3,6-trifluoro-4-(2-((4-fluorobenzyl)oxy)pyrimidin-4-yl)benzyl)-1H-benzo[d]imidazole-6-carboxylic acid] |  |  |  |  | 0.457 nM |  |
| CC1(C)COC[C@H]1n1c(Cc2cc(F)c(-c3ccnc(OCc4ccc(F)cc4)n3)cc2F)nc2ccc(C(=O)O)cc21 [Example 575, (S)-2-(2,5-difluoro-4-(2-((4-fluorobenzyl)oxy)pyrimidin-4-yl)benzyl)-1-(4,4-dimethyltetrahydrofuran-3-yl)-1H-benzo[d]imidazole-6-carboxylic acid] |  |  |  |  | 0.186 nM |  |
